Measurements reported in patent publication US11345708B2, “Substituted imidazo[1,2-a]imidazoles as modulators of metabotropic glutamate receptor 4 activity” (Hoffmann-La Roche Inc., priority 2017, dated 2022).

Biological target: T1, human mGlu4 receptor (Homo sapiens, UniProt Q14833)
T1 construct: expressed in transfected cells; host or cells: HEK-293 (monoclonal, stably transfected)
Experiment: Ca2+ mobilization in vitro assay on recombinant human mGlu4 expressed in HEK293 cells
Type: cell-based
Conditions: HEK-293 cells stably expressing human mGlu4; L-AP4 added at EC20; Fluo-4 fluorescence; read-out: EC50 (uM) mGlu4 PAM
Experimental: Determination of EC50 Values Using a Ca2+ Mobilization In Vitro Assay on Recombinant Human mGlu4 Expressed in HEK293 Cells:
A monoclonal HEK-293 cell line stably transfected with a cDNA encoding for the human mGlu4 receptor was generated; for the work with mGlu4 Positive Allosteric Modulators (PAMs), a cell line with low receptor expression levels and low constitutive receptor activity was selected to allow the differentiation of agonistic versus PAM activity. Cells were cultured according to standard protocols (Freshney, 2000) in Dulbecco's Modified Eagle Medium with high glucose supplemented with 1 mM glutamine, 10% (vol/vol) heat-inactivated bovine calf serum, Penicillin/Streptomycin, 50 μg/ml hygromycin and 15 μg/ml blasticidin (all cell culture reagents and antibiotics from Invitrogen, Basel, Switzerland).
About 24 hrs before an experiment, 5×10^4 cells/well were seeded in poly-D-lysine coated, black/clear-bottomed 96-well plates. The cells were loaded with 2.5 μM Fluo-4 AM in loading buffer (1×HBSS, 20 mM HEPES) for 1 hr at 37° C. and washed five times with loading buffer. The cells were transferred into a Functional Drug Screening System 7000 (Hamamatsu, Paris, France), and 11 half logarithmic serial dilutions of test compound at 37° C. were added and the cells were incubated for 10-30 min. with on-line recording of fluorescence. Following this pre-incubation step, the agonist (2S)-2-amino-4-phosphonobutanoic acid (L-AP4) was added to the cells at a concentration corresponding to EC20 with on-line recording of fluorescence; in order to account for day-to-day variations in the responsiveness of cells, the EC20 of L-AP4 was determined immediately ahead of each experiment by recording of a full dose-response curve of L-AP4.
Responses were measured as peak increase in fluorescence minus basal (i.e. fluorescence without addition of L-AP4), normalized to the maximal stimulatory effect obtained with saturating concentrations of L-AP4. Graphs were plotted with the % maximal stimulatory using XLfit, a curve fitting program that iteratively plots the data using Levenburg Marquardt algorithm. The single site competition analysis equation used was y=A+((B−A)/(1+((x/C)D))), where y is the % maximal stimulatory effect, A is the minimum y, B is the maximum y, C is the EC50, x is the log 10 of the concentration of the competing compound and D is the slope of the curve (the Hill Coefficient). From these curves the EC50 (drug concentration at which 50% of the maximal receptor activation was achieved), the Hill coefficient as well as the maximal response in % of the maximal stimulatory effect obtained with saturating concentrations of L-AP4 were calculated (see Fig. 1).
A depression of the signal observed after addition of the EC20 concentration of L-AP4 was indicative of an inhibitory activity of the test compound.

T1 sequence (Q14833 33-912): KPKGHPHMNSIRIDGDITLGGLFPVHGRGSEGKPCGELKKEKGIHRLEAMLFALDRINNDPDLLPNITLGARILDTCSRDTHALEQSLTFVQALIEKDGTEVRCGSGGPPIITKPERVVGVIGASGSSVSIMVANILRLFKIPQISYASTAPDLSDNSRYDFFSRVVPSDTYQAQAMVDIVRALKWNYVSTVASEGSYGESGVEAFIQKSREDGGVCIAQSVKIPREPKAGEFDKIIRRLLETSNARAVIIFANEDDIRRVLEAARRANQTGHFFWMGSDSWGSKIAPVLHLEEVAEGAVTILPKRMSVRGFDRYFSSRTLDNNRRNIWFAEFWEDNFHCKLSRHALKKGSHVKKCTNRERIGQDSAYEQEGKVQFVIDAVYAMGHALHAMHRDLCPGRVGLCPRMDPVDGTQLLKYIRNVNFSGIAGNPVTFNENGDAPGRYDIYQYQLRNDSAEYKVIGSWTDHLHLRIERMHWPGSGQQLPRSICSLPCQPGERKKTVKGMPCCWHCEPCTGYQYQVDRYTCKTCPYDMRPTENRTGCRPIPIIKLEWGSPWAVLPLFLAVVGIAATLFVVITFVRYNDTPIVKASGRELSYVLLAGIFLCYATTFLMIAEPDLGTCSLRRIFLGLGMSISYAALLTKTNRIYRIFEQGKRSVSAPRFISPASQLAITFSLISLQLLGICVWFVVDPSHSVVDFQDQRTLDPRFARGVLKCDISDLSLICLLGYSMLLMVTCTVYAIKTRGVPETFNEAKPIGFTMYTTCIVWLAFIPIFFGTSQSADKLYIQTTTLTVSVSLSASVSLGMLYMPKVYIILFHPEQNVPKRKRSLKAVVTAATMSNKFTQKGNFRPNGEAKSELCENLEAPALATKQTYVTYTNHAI

EC50 [µM] | Structure (SMILES)
0.12 | Cn1cnc(-c2cnc3n2C2(CC2)C(=O)N3c2c(F)cc(C#Cc3ccccc3)cc2F)c1 [Example 14, 7′-[2,6-difluoro-4-(2-phenylethynyl)phenyl]-3′-(1-methylimidazol-4-yl)spiro[cyclopropane-1,5′-imidazo[1,2-a]imidazole]-6′-one]
0.232 | CC(C)(C)c1cnn(-c2cc(F)c(N3C(=O)C4(CC4)n4c(-c5ccncn5)cnc43)c(F)c2)c1 [Example 15, 7′-[4-(4-tert-butylpyrazol-1-yl)-2,6-difluoro-phenyl]-3′-pyrimidin-4-yl-spiro[cyclopropane-1,5′-imidazo[1,2-a]imidazole]-6′-one]
0.237 | O=C1N(c2c(F)cc(C#Cc3cccnc3)cc2F)c2ncc(-c3ccncn3)n2C12CC2 [Example 16, 7′-[2,6-difluoro-4-[2-(3-pyridyl)ethynyl]phenyl]-3′-pyrimidin-4-yl-spiro[cyclopropane-1,5′-imidazo[1,2-a]imidazole]-6′-one]
0.283 | O=C1N(c2c(F)cc(C#Cc3cccnc3)cc2F)c2ncc(-c3ccccn3)n2C12CC2 [Example 17, 7′-[2,6-difluoro-4-[2-(3-pyridyl)ethynyl]phenyl]-3′-(2-pyridyl)spiro[cyclopropane-1,5′-imidazo[1,2-a]imidazole]-6′-one]
0.361 | O=C1N(c2c(F)cc(C#Cc3ccccc3)cc2F)c2ncc(-c3ccncn3)n2C12CC2 [Example 18, 3′-[2,6-Difluoro-4-(2-phenylethynyl)phenyl]-6′-(pyrimidin-4-yl)-2′,3′-dihydrospiro[cyclopropane-1,1′-imidazo-[1,2-a][1,3]diazole]-2′-one]
0.426 | CC(C)(C)c1cnn(-c2cc(F)c(N3C(=O)C4(CC4)n4c(-c5ccccn5)cnc43)c(F)c2)c1 [Example 19, 7′-[4-(4-tert-butylpyrazol-1-yl)-2,6-difluoro-phenyl]-3′-(2-pyridyl)spiro[cyclopropane-1,5′-imidazo[1,2-a]imidazole]-6′-one]
0.442 | Cn1cnc(-c2cnc3n2C2(CC2)C(=O)N3c2c(F)cc(C#Cc3cccnc3)cc2F)c1 [Example 20, 7′-[2,6-difluoro-4-[2-(3-pyridyl)ethynyl]phenyl]-3′-(1-methylimidazol-4-yl)spiro[cyclopropane-1,5′-imidazo[1,2-a]imidazole]-6′-one]
0.596 | O=C1N(c2c(F)cc(-n3cc(C(F)(F)F)cn3)cc2F)c2ncc(-c3ccccn3)n2C12CC2 [Example 21, 7′-[2,6-difluoro-4-[4-(trifluoromethyl)pyrazol-1-yl]phenyl]-3′-(2-pyridyl)spiro[cyclopropane-1,5′-imidazo[1,2-a]imidazole]-6′-one]
0.61 | O=C(Nc1ccccn1)c1cc(F)c(N2C(=O)C3(CC3)n3c(-c4ccccn4)cnc32)c(F)c1 [Example 22, 3,5-difluoro-4-[6′-oxo-3′-(2-pyridyl)spiro[cyclopropane-1,5′-imidazo[1,2-a]imidazole]-7′-yl]-N-(2-pyridyl)benzamide]
0.755 | O=C1N(c2c(F)cc(-n3cc(C(F)(F)F)cn3)cc2F)c2ncc(-c3ccncn3)n2C12CC2 [Example 23, 7′-[2,6-difluoro-4-[4-(trifluoromethyl)pyrazol-1-yl]phenyl]-3′-pyrimidin-4-yl-spiro[cyclopropane-1,5′-imidazo[1,2-a]imidazole]-6′-one]
0.073 | O=C1N(c2c(F)cc(C#Cc3ccccc3)cc2F)c2ncc(-c3ccccc3)n2C12CC2 [Example 24, 3-[2,6-Difluoro-4-(2-phenylethynyl)phenyl]-6-phenyl-2,3-dihydrospiro[[1,3]diazolo[1,2-a]imidazole-1,1′-cyclopropane]-2-one]
0.1 | Cn1ccc(-c2cnc3n2C2(CC2)C(=O)N3c2c(F)cc(-c3ccc(C(C)(F)F)cc3)cc2F)n1 [Example 25, 7′-[4-[4-(1,1-difluoroethyl)phenyl]-2,6-difluoro-phenyl]-3′-(1-methylpyrazol-3-yl)spiro[cyclopropane-1,5′-imidazo[1,2-a]imidazole]-6′-one]
0.104 | Cn1ccc(-c2cnc3n2C2(CC2)C(=O)N3c2c(F)cc(C#Cc3ccccc3)cc2F)n1 [Example 26, 1′-(2,6-difluoro-4-(phenylethynyl)phenyl)-5′-(1-methyl-1H-pyrazol-3-yl)spiro[cyclopropane-1,3′-imidazo[1,2-a]imidazol]-2′(1′H)-one]
0.121 | O=C1N(c2c(F)cc(C#Cc3ccccc3)cc2F)c2ncc(-c3cc[nH]n3)n2C12CC2 [Example 27, 3-[2,6-Difluoro-4-(2-phenylethynyl)phenyl]-6-(1H-pyrazol-3-yl)-2,3-dihydrospiro[[1,3]diazolo[1,2-a]-imidazole-1,1′-cyclopropane]-2-one]
0.135 | O=C1N(c2c(F)cc(C#Cc3cccnc3)cc2F)c2ncc(-c3cc[nH]n3)n2C12CC2 [Example 28, 7′-[2,6-difluoro-4-[2-(3-pyridyl)ethynyl]phenyl]-3′-(1H-pyrazol-3-yl)spiro[cyclopropane-1,5′-imidazo[1,2-a]imidazole]-6′-one]
0.139 | Cn1cc(-c2cnc3n2C2(CC2)C(=O)N3c2c(F)cc(C#Cc3ccccc3)cc2F)cn1 [Example 29, 3-[2,6-Difluoro-4-(2-phenylethynyl)phenyl]-6-(1-methyl-1H-pyrazol-4-yl)-2,3-dihydrospiro[[1,3]diazolo[1,2-a]imidazole-1,1′-cyclopropane]-2-one]
0.243 | CC1(C)C(=O)N(c2c(F)cc(C#Cc3ccccc3)cc2F)c2ncc(-c3ccccc3)n21 [Example 31, 1-(2,6-difluoro-4-(phenylethynyl)phenyl)-3,3-dimethyl-5-phenyl-1H-imidazo[1,2-a]imidazol-2(3H)-one]
0.156 | O=C1N(c2c(F)cc(C#Cc3ccccc3)cc2F)c2ncc(-c3ccncc3)n2C12CC2 [Example 32, 3-[2,6-Difluoro-4-(2-phenylethynyl)phenyl]-6-(pyridin-4-yl)-2,3-dihydrospiro[[1,3]diazolo[1,2-a]imidazole-1,1′-cyclopropane]-2-one]
0.178 | O=C1N(c2c(F)cc(C#Cc3ccccc3)cc2F)c2ncc(-c3cccnc3)n2C12CC2 [Example 33, 3-[2,6-Difluoro-4-(2-phenylethynyl)phenyl]-6-(pyridin-3-yl)-2,3-dihydrospiro[[1,3]diazolo[1,2-a]imidazole-1,1′-cyclopropane]-2-one]
0.195 | Cn1cc(-c2cnc3n2C(C)(C)C(=O)N3c2c(F)cc(C#Cc3ccccc3)cc2Cl)cn1 [Example 34, 1-(2-chloro-6-fluoro-4-(phenylethynyl)phenyl)-3,3-dimethyl-5-(1-methyl-1H-pyrazol-4-yl)-1H-imidazo[1,2-a]imidazol-2(3H)-one]
0.227 | Cn1cc(-c2cnc3n2C2(CC2)C(=O)N3c2c(F)cc(-c3ccc(C(C)(F)F)cc3)cc2F)cn1 [Example 35, 1′-(4′-(1,1-difluoroethyl)-3,5-difluoro-[1,1′-biphenyl]-4-yl)-5′-(1-methyl-1H-pyrazol-4-yl)spiro[cyclopropane-1,3′-imidazo[1,2-a]imidazol]-2′(1′H)-one]
0.252 | Cn1ccc(-c2cnc3n2C(C)(C)C(=O)N3c2c(F)cc(C#Cc3ccccc3)cc2Cl)n1 [Example 36, 1-(2-chloro-6-fluoro-4-(phenylethynyl)phenyl)-3,3-dimethyl-5-(1-methyl-1H-pyrazol-3-yl)-1H-imidazo[1,2-a]imidazol-2(3H)-one]
0.229 | Cn1cc(-c2cnc3n2C2(CC2)C(=O)N3c2c(F)cc(C#Cc3cccnc3)cc2F)cn1 [Example 37, 1′-(2,6-difluoro-4-(pyridin-3-ylethynyl)phenyl)-5′-(1-methyl-1H-pyrazol-4-yl)spiro[cyclopropane-1,3′-imidazo[1,2-a]imidazol]-2′(1′H)-one]
0.331 | O=C1N(c2c(F)cc(C#Cc3ccccc3)cc2F)c2ncc(-c3cncnc3)n2C12CC2 [Example 38, 3-[2,6-Difluoro-4-(2-phenylethynyl)phenyl]-6-(pyrimidin-5-yl)-2,3-dihydrospiro[[1,3]diazolo[1,2-a]imidazole-1,1′-cyclopropane]-2-one]
0.566 | O=C1N(c2c(F)cc(C#Cc3cccnc3)cc2F)c2ncc(-c3cccnc3)n2C12CC2 [Example 39, 1′-(2,6-difluoro-4-(pyridin-3-ylethynyl)phenyl)-5′-(pyridin-3-yl)spiro[cyclopropane-1,3′-imidazo[1,2-a]imidazol]-2′(1′H)-one]
